Test results: ChEMBL document CHEMBL1152655, “Novel acenaphtho[1,2-b]pyrrole-carboxylic acid family: synthesis, cytotoxicity, DNA-binding and cell cycle evaluation” (Bioorg Med Chem, 2009)
Active and inactive are the calls of the source. No cut-off for these calls is given here.

Assays:
HeLa [1] = assay: Cell cycle arrest in human HeLa cells by accumulation at G1 phase at 28.65 uM by flow cytometry (Rvb=58.94%); type: functional
HeLa [2] = assay: Cell cycle arrest in human HeLa cells assessed as apoptotic cells at 11.46 uM by flow cytometry relative to control; type: functional
HCT-8 = assay: Cytotoxicity against human HCT8 cells after 48 hrs by MTT assay; type: functional, cell-based; conditions: HCT-8, 48 h
HeLa [3] = assay: Cell cycle arrest in human HeLa cells by accumulation at G2 phase at 11.46 uM by flow cytometry (Rvb=12.86%); type: functional
Calf thymus DNA [4] = assay: Binding affinity to calf thymus DNA assessed as DNA intercalation at 30 uM by UV-Vis absorption studies; type: nucleic-acid assay; conditions: Bos taurus
HeLa [5] = assay: Cell cycle arrest in human HeLa cells assessed as apoptotic cells at 28.65 uM by flow cytometry relative to control; type: functional
MCF7 = assay: Cytotoxicity against human MCF7 cells after 48 hrs by MTT assay; type: functional, cell-based; conditions: MCF7, 48 h
HeLa [6] = assay: Cell cycle arrest in human HeLa cells by accumulation at S phase at 20.06 uM by flow cytometry (Rvb=28.20%); type: functional
Calf thymus DNA [7] = assay: Binding affinity to calf thymus DNA; type: nucleic-acid assay; conditions: Bos taurus
HeLa [8] = assay: Cell cycle arrest in human HeLa cells by accumulation at S phase at 28.65 uM by flow cytometry (Rvb=28.20%); type: functional
A-375 = assay: Cytotoxicity against human A375 cells after 48 hrs by MTT assay; type: functional, cell-based; conditions: A-375, 48 h
HL-60 = assay: Cytotoxicity against human HL60 cells after 48 hrs by MTT assay; type: functional, cell-based; conditions: HL-60, 48 h
Calf thymus DNA [9] = assay: Binding affinity to calf thymus DNA assessed as increase in solution viscosity by viscometric titration; type: nucleic-acid assay; conditions: Bos taurus
HeLa [10] = assay: Cell cycle arrest in human HeLa cells by accumulation at G2 phase at 28.65 uM by flow cytometry (Rvb=12.86%); type: functional
HeLa [11] = assay: Cell cycle arrest in human HeLa cells by accumulation at G1 phase at 20.06 uM by flow cytometry (Rvb=58.94%); type: functional
HeLa [12] = assay: Cell cycle arrest in human HeLa cells by accumulation at S phase at 11.46 uM by flow cytometry (Rvb=28.20%); type: functional
HeLa [13] = assay: Cell cycle arrest in human HeLa cells assessed as apoptotic cells at 20.06 uM by flow cytometry relative to control; type: functional
Calf thymus DNA [14] = assay: Binding affinity to calf thymus DNA assessed as conformational change at 10 uM by CD spectra; type: nucleic-acid assay; conditions: Bos taurus
HeLa [15] = assay: Cell cycle arrest in human HeLa cells by accumulation at G1 phase at 11.46 uM by flow cytometry (Rvb=58.94%); type: functional
HeLa [16] = assay: Cytotoxicity against human HeLa cells after 48 hrs by MTT assay; type: functional, cell-based
HeLa [17] = assay: Cell cycle arrest in human HeLa cells by accumulation at G2 phase at 20.06 uM by flow cytometry (Rvb=12.86%); type: functional
HeLa [18] = assay: Cell cycle arrest in human HeLa cells by accumulation at S phase at 12.05 uM by flow cytometry (Rvb=28.20%); type: functional
HeLa [19] = assay: Cell cycle arrest in human HeLa cells by accumulation at G1 phase at 12.05 uM by flow cytometry (Rvb=58.94%); type: functional
HeLa [20] = assay: Cell cycle arrest in human HeLa cells by accumulation at G1 phase at 3.01 uM by flow cytometry (Rvb=58.94%); type: functional
HeLa [21] = assay: Cell cycle arrest in human HeLa cells by accumulation at S phase at 21.08 uM by flow cytometry (Rvb=28.20%); type: functional
HeLa [22] = assay: Cell cycle arrest in human HeLa cells by accumulation at G2 phase at 12.05 uM by flow cytometry (Rvb=12.86%); type: functional
HeLa [23] = assay: Cell cycle arrest in human HeLa cells assessed as apoptotic cells at 3.01 uM by flow cytometry relative to control; type: functional
HeLa [24] = assay: Cell cycle arrest in human HeLa cells by accumulation at S phase at 3.01 uM by flow cytometry (Rvb=28.20%); type: functional
HeLa [25] = assay: Cell cycle arrest in human HeLa cells by accumulation at G1 phase at 21.08 uM by flow cytometry (Rvb=58.94%); type: functional
HeLa [26] = assay: Cell cycle arrest in human HeLa cells assessed as apoptotic cells at 12.05 uM by flow cytometry relative to control; type: functional
HeLa [27] = assay: Cell cycle arrest in human HeLa cells by accumulation at G2 phase at 21.08 uM by flow cytometry (Rvb=12.86%); type: functional
HeLa [28] = assay: Cell cycle arrest in human HeLa cells assessed as apoptotic cells at 21.08 uM by flow cytometry relative to control; type: functional
HeLa [29] = assay: Cell cycle arrest in human HeLa cells by accumulation at G2 phase at 3.01 uM by flow cytometry (Rvb=12.86%); type: functional

CN(C)CCCNc1ccc2c3c(cccc13)C1=NC(=O)C(C(=O)O)=C12
Activity (HeLa [1]): 34.1% | Activity (HeLa [2]): 5.22% | IC50 (HCT-8): > 100 µM | Activity (HeLa [3]): 13.17% | Activity (Calf thymus DNA [4]): Active | Activity (HeLa [5]): 13.89% | IC50 (MCF7): 70.5 µM | Activity (HeLa [6]): 45.43% | K (Calf thymus DNA [7]): 6.01 ×10⁵ /M | Activity (HeLa [8]): 48.41% | IC50 (A-375): > 100 µM | IC50 (HL-60): 13.1 µM | Activity (Calf thymus DNA [9]): Dose-dependent effect | Activity (HeLa [10]): 17.49% | Activity (HeLa [11]): 35.97% | Activity (HeLa [12]): 35.96% | Activity (HeLa [13]): 11.13% | Activity (Calf thymus DNA [14]): Active | Activity (HeLa [15]): 50.87% | IC50 (HeLa [16]): 29.3 µM | Activity (HeLa [17]): 18.6%

N#CC1=C2C(=NC1=O)c1cccc3c(N4CCSCC4)ccc2c13
IC50 (HCT-8): 25.8 µM | IC50 (MCF7): 41.2 µM | IC50 (A-375): 48.7 µM | IC50 (HL-60): 28.6 µM | IC50 (HeLa [16]): 15.7 µM

CN1CCN(c2ccc3c4c(cccc24)C2=NC(=O)C(C(=O)O)=C23)CC1
IC50 (HCT-8): 72.1 µM | IC50 (MCF7): 14.9 µM | K (Calf thymus DNA [7]): 6.13 ×10⁵ /M | IC50 (A-375): 28.5 µM | IC50 (HL-60): 51 µM | IC50 (HeLa [16]): 17.2 µM

CN(C)CCNc1ccc2c3c(cccc13)C1=NC(=O)C(C(=O)O)=C12
IC50 (HCT-8): > 100 µM | IC50 (MCF7): 97 µM | K (Calf thymus DNA [7]): 5.96 ×10⁵ /M | IC50 (A-375): > 100 µM | IC50 (HL-60): 47.9 µM | IC50 (HeLa [16]): 89.7 µM

O=C(O)C1=C2C(=NC1=O)c1cccc3c(N4CCCCC4)ccc2c13
IC50 (HCT-8): 24.4 µM | Activity (HeLa [18]): 30.52% | Activity (HeLa [19]): 60.02% | Activity (Calf thymus DNA [4]): Active | IC50 (MCF7): 14.5 µM | Activity (HeLa [20]): 64.63% | Activity (HeLa [21]): 33.58% | K (Calf thymus DNA [7]): 2.91 ×10⁵ /M | Activity (HeLa [22]): 9.46% | IC50 (A-375): 18.4 µM | Activity (HeLa [23]): 4.34% | Activity (HeLa [24]): 31.63% | IC50 (HL-60): 20.5 µM | Activity (HeLa [25]): 53.67% | Activity (Calf thymus DNA [9]): Dose-dependent effect | Activity (HeLa [26]): 4.81% | Activity (Calf thymus DNA [14]): Active | Activity (HeLa [27]): 12.75% | IC50 (HeLa [16]): 20.6 µM | Activity (HeLa [28]): 11.95% | Activity (HeLa [29]): 3.75%

CCCCNc1ccc2c3c(cccc13)C1=NC(=O)C(C(=O)O)=C12
IC50 (HCT-8): 48.1 µM | IC50 (MCF7): > 100 µM | K (Calf thymus DNA [7]): 4.73 ×10⁵ /M | IC50 (A-375): 50.1 µM | IC50 (HL-60): 24.1 µM | IC50 (HeLa [16]): 30.3 µM

COC(=O)C1=C2C(=NC1=O)c1cccc3c(N4CCSCC4)ccc2c13
IC50 (HCT-8): > 100 µM | IC50 (MCF7): 68 µM | IC50 (A-375): > 100 µM | IC50 (HL-60): > 100 µM | IC50 (HeLa [16]): 26.9 µM

O=C(O)C1=C2C(=NC1=O)c1cccc3c(NCc4cccs4)ccc2c13
IC50 (HCT-8): > 100 µM | IC50 (MCF7): > 100 µM | K (Calf thymus DNA [7]): 6.75 ×10⁵ /M | IC50 (A-375): > 100 µM | IC50 (HL-60): 90 µM | IC50 (HeLa [16]): 84.3 µM

O=C(O)C1=C2C(=NC1=O)c1cccc3c(N4CCOCC4)ccc2c13
IC50 (HCT-8): > 100 µM | IC50 (MCF7): 18 µM | K (Calf thymus DNA [7]): 2.34 ×10⁵ /M | IC50 (A-375): 79.4 µM | IC50 (HL-60): 42.2 µM | IC50 (HeLa [16]): 36.2 µM

O=C(O)C1=C2C(=NC1=O)c1cccc3c(N4CCSCC4)ccc2c13
IC50 (HCT-8): > 100 µM | IC50 (MCF7): > 100 µM | K (Calf thymus DNA [7]): 2.69 ×10⁵ /M | IC50 (A-375): > 100 µM | IC50 (HL-60): 76.9 µM | IC50 (HeLa [16]): 48.9 µM

CCN(CC)CCNc1ccc2c3c(cccc13)C1=NC(=O)C(C(=O)O)=C12
IC50 (HCT-8): 38.1 µM | IC50 (MCF7): 16.5 µM | K (Calf thymus DNA [7]): 5.48 ×10⁵ /M | IC50 (A-375): 71.8 µM | IC50 (HL-60): 19.8 µM | IC50 (HeLa [16]): 10.4 µM
